From patent US20240101570A1 (AMGEN INC., priority 2020, published 2024) come the findings set out here.

The subject of one experiment is HCT116 MTAP null cells. In words: HCT116 MTAP null cell proliferation / viability (CellTiter-Glo, 6 days). The format is cell-based. The settings on record: HCT116-MTAP null, 144 h, HCT116 MTAP null cells, 6 days, CellTiter-Glo; read-out: HCT-116 MTAP null IC50. The method in brief: (§1)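 CellTiter-Glo luminescence, 6-day exposure, RPMI 1640 + 10% FBS. Dosing: 1:3 series (8-9 pts, top 1 or 10 μM) or 1:2 series (22 pts, top 10 or 50 μM), DMSO control. IC50 = 50% of control via curve fit.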
Background: In ATP-based viability assays light output follows the ATP content of the culture.

A further experiment concerns HCT116 WT cells. Kind of experiment: HCT116 WT cell proliferation / viability (CellTiter-Glo, 6 days). Conditions: Homo sapiens, HCT-116, 144 h, HCT116 WT cells, 6 days, CellTiter-Glo; read-out: HCT-116 WT IC50. The format is cell-based. The method in brief: as §1

Regarding `CCN(C(=O)c1cc2c3c(c(N)nc2cn1)COC3)[C@H](C)c1ccc(C(F)(F)F)cn1` (single isomer, unassigned) [Example 823], the results for the IC50 with HCT116 MTAP null cells and with HCT116 WT cells were 528 nM and 16.2 µM, respectively.
The like results for `CCN(C(=O)c1cc2c3c(c(N)nc2cn1)COC3)[C@@H](C)c1ccc(C(F)(F)F)cn1` (single isomer, unassigned) [Example 824] were, in that order, 2390 nM and 26.3 µM.
Taken in the same sequence, the figures for `C[C@H](c1ccc(C(F)(F)F)cn1)N(C(=O)c1cc2c3c(c(N)nc2cn1)COC3)c1cnn(C)c1` (single isomer, unassigned) [Example 825] were 22 nM and 0.276 µM.
Taken in the same sequence, the figures for `C[C@@H](c1ccc(C(F)(F)F)cn1)N(C(=O)c1cc2c3c(c(N)nc2cn1)COC3)c1cnn(C)c1` (single isomer, unassigned) [Example 826] were 6720 nM and 27.1 µM.
Consider `C[C@@H]1OCc2c1c(N)nc1cnc(C(=O)N(Cc3ccc(C(F)(F)F)cn3)c3cnn(C)c3)cc21` (single isomer, unassigned) [Example 827], for which the IC50 (in general, the concentration needed to halve the response being measured) in the experiment with HCT116 MTAP null cells amounted to 1250 nM; in the experiment on HCT116 WT cells, 47.2 µM.
The like results for `C[C@H]1OCc2c1c(N)nc1cnc(C(=O)N(Cc3ccc(C(F)(F)F)cn3)c3cnn(C)c3)cc21` (single isomer, unassigned) [Example 828] were, in that order, 26 nM and 0.294 µM.
Taken in the same sequence, the figures for `C[C@@H]1OCc2c1c(N)nc1cnc(C(=O)N(Cc3ccc(C(F)(F)F)nn3)C3CCC3)cc21` (single isomer, unassigned) [Example 829] were 7790 nM and above 50 µM.
The like results for `C[C@H]1OCc2c1c(N)nc1cnc(C(=O)N(Cc3ccc(C(F)(F)F)nn3)C3CCC3)cc21` (single isomer, unassigned) [Example 830] were, in that order, 80 nM and 2.97 µM.
`CC(C)N(C(=O)c1ccc2nc(N)c3c(c2c1)COC3)[C@@H](C)c1ccc(C(F)(F)F)cn1` (single isomer, unassigned) [Example 831]: the IC50 with HCT116 MTAP null cells amounted to 2570 nM; with HCT116 WT cells, 31.7 µM.
As to `CC(C)N(C(=O)c1ccc2nc(N)c3c(c2c1)COC3)[C@H](C)c1ccc(C(F)(F)F)cn1` (single isomer, unassigned) [Example 832], the results for the IC50 in the experiment on HCT116 MTAP null cells and in the experiment with HCT116 WT cells were 454 nM and 12.6 µM, respectively.
The like results for `C[C@@H](c1ncc(F)cn1)N(CCOC(F)(F)F)C(=O)c1cc2c3c(c(N)nc2cc1F)COC3` (single isomer, unassigned) [Example 833] were, in that order, 2560 nM and 27.2 µM.
Taken in the same sequence, the figures for `C[C@H](c1ncc(F)cn1)N(CCOC(F)(F)F)C(=O)c1cc2c3c(c(N)nc2cc1F)COC3` (single isomer, unassigned) [Example 834] were 817 nM and 19.7 µM.
Taken in the same sequence, the figures for `CCN(C(=O)c1ccc2nc(N)c3c(c2c1)COC3)[C@H](C)c1ccc(C#N)cc1` (single isomer, unassigned) [Example 835] were 126 nM and 3.76 µM.
Turning to `CCN(C(=O)c1ccc2nc(N)c3c(c2c1)COC3)[C@@H](C)c1ccc(C#N)cc1` (single isomer, unassigned) [Example 836], the IC50 is 3640 nM in the experiment with HCT116 MTAP null cells and 38.7 µM with HCT116 WT cells.
For `CCN(C(=O)c1ccc2nc(N)c3c(c2c1)COC3)[C@@H](C)c1ccc(C#N)cn1` (single isomer, unassigned) [Example 837], the IC50 in the experiment on HCT116 MTAP null cells is 7080 nM; in the experiment with HCT116 WT cells, above 50 µM.
Taken in the same sequence, the figures for `CCN(C(=O)c1ccc2nc(N)c3c(c2c1)COC3)[C@H](C)c1ccc(C#N)cn1` (single isomer, unassigned) [Example 838] were 161 nM and 8.59 µM.
Taken in the same sequence, the figures for `CC(C)N(C(=O)c1ccc2nc(N)c3c(c2c1)CO[C@@H]3C)[C@H](C)c1ccc(C(F)(F)F)cn1` (single isomer, unassigned) [Example 839] were 213 nM and 9.52 µM.
In the case of `CC(C)N(C(=O)c1ccc2nc(N)c3c(c2c1)CO[C@@H]3C)[C@@H](C)c1ccc(C(F)(F)F)cn1` (single isomer, unassigned) [Example 840], the IC50 in the experiment with HCT116 MTAP null cells stood at 638 nM; in the experiment on HCT116 WT cells it was 22.9 µM.
The like results for `CC(C)N(C(=O)c1cc2c3c(c(N)nc2cc1F)COC3)[C@@H](C)c1ccc(C(F)(F)F)cn1` (single isomer, unassigned) [Example 841] were, in that order, 613 nM and 11.7 µM.
The like results for `CC(C)N(C(=O)c1cc2c3c(c(N)nc2cc1F)COC3)[C@H](C)c1ccc(C(F)(F)F)cn1` (single isomer, unassigned) [Example 842] were, in that order, 115 nM and 3.27 µM.
The like results for `CCN(C(=O)c1ccc2nc(N)c3c(c2c1)CO[C@@H]3C)[C@@H](C)c1ccc(C#N)cn1` (single isomer, unassigned) [Example 843] were, in that order, 3360 nM and above 50 µM.
Consider `CCN(C(=O)c1ccc2nc(N)c3c(c2c1)CO[C@@H]3C)[C@H](C)c1ccc(C#N)cn1` (single isomer, unassigned) [Example 844], for which the IC50 was found to be 105 nM in the experiment on HCT116 MTAP null cells and 6.23 µM in the experiment with HCT116 WT cells.
The like results for `CC(C)N(C(=O)c1cc2c3c(c(N)nc2cc1Cl)COC3)[C@H](C)c1ccc(C(F)(F)F)cn1` (single isomer, unassigned) [Example 845] were, in that order, 105 nM and 2.24 µM.
The like results for `CC(C)N(C(=O)c1cc2c3c(c(N)nc2cc1Cl)COC3)[C@@H](C)c1ccc(C(F)(F)F)cn1` (single isomer, unassigned) [Example 846] were, in that order, 212 nM and 3.94 µM.
`CC(C)N(C(=O)c1cc2c3c(c(N)nc2cn1)COC3)[C@@H](C)c1ccc(C(F)(F)F)cn1` (single isomer, unassigned) [Example 847]: the IC50 came to 1860 nM in the experiment on HCT116 MTAP null cells and 36.1 µM in the experiment with HCT116 WT cells.
The like results for `CC(C)N(C(=O)c1cc2c3c(c(N)nc2cn1)COC3)[C@H](C)c1ccc(C(F)(F)F)cn1` (single isomer, unassigned) [Example 848] were, in that order, 453 nM and 11.5 µM.
Taken in the same sequence, the figures for `CC[C@H](c1ccc(C(F)(F)F)cn1)N(C)C(=O)c1cc2c3c(c(N)nc2cn1)COC3` (single isomer, unassigned) [Example 849] were 879 nM and 24.4 µM.
The like results for `CC[C@@H](c1ccc(C(F)(F)F)cn1)N(C)C(=O)c1cc2c3c(c(N)nc2cn1)COC3` (single isomer, unassigned) [Example 850] were, in that order, 8340 nM and above 50 µM.
Turning to `C[C@H](c1ccc(C(F)(F)F)cn1)N(C)C(=O)c1ccc2nc(N)c3c(c2c1)CO[C@@H]3C` (single isomer, unassigned) [Example 851], the IC50 in the experiment on HCT116 MTAP null cells was 47 nM; in the experiment on HCT116 WT cells, 4 µM.
The like results for `C[C@H]1OCc2c1c(N)nc1ccc(C(=O)N(C)[C@@H](C)c3ccc(C(F)(F)F)cn3)cc21` (single isomer, unassigned) [Example 852] were, in that order, 3160 nM and above 50 µM.
For the compound `C[C@H](c1ncc(F)cc1F)N(C)C(=O)c1cc2c(cc1F)nc(N)c1cnn(C)c12` (single isomer, unassigned) [Example 853], the IC50 with HCT116 MTAP null cells is 167 nM; with HCT116 WT cells, 14.3 µM.
